The text below walks through data of ChEMBL document CHEMBL5370578, “Discovery of a potent, orally available tricyclic derivative as a novel BRD4 inhibitor for melanoma” (Bioorg Med Chem, 2023).

The nature of series [1]: Stability in human liver microsomes assessed as intrinsic clearance measured per mg protein.
The target in series [2] is T1, Bromodomain-containing protein 4 (Homo sapiens, UniProt O60885). Put plainly: Displacement of Biotin-tagged [Lys(5,8,12,16)Ac]H4(1 to 21) peptide from GST-tagged BRD4-BD1 (unknown origin) incubated for 3 hrs by HTRF based TR-FRET assay.
A short description of series [3]: Stability in mouse liver microsomes assessed as intrinsic clearance measured per mg protein.
The nature of series [4]: Total clearance in Slc:ICR mouse at 0.5 mg/kg, iv measured for 4 to 8 hrs by LC/MS/MS analysis. It is filed as ADME, organism-based. The following applies: in vivo, time 4-8 hrs.
A short description of series [5]: Apparent permeability of the compound across apical side to basolateral side in human Caco-2 cells incubated for 2 hrs by LC-MS/MS analysis.
Series [6] in a line: AUC (0 to 8 hrs) in Slc:ICR mouse at 1 mg/kg, po measured for 8 to 24 hrs by LC/MS/MS analysis. On the set-up: time lower 8 hrs, dose 1 mg/kg, time upper 24 hrs, route po. It is filed as ADME, organism-based. Particulars: in vivo.
A short description of another series: in vivo. Particulars: Slc:ICR, mouse, po, 1 mg/kg.
Series [7] in a line: Oral bioavailability in Slc:ICR mouse at 1 mg/kg measured for 8 to 24 hrs by LC/MS/MS analysis. The following applies: in vivo, time 8-24 hrs. It is filed as ADME, organism-based.
The nature of series [8]: Half life in Slc:ICR mouse at 0.5 mg/kg, iv measured for 4 to 8 hrs by LC/MS/MS analysis. The series is classed as ADME, organism-based. The following applies: in vivo, time 4-8 hrs.
Series [9] is described as follows: Antitumor activity against human A375.S2 cells xenografted CAnN.Cg-Foxnlnu/CrlCrlj mouse model assessed as reduction in tumor growth at 60 mg/kg administered twice daily for 14 days relative to control. It is filed as functional. Also noted: scale not given: the % may be the effect or the level left. Particulars: time 14 day.
Series [10] has as its target Bromodomain-containing protein 3 (Homo sapiens, UniProt Q15059). Put plainly: Displacement of Biotin-tagged [Lys(5,8,12,16)Ac]H4(1 to 21) peptide from GST-tagged BRD3-BD1 (unknown origin) incubated for 3 hrs by HTRF based TR-FRET assay.
A short description of series [11]: Antiproliferative activity against human A375.S2 cells assessed as inhibition of cell growth incubated for 72 hrs by WST-1 assay. It is filed as functional, cell-based. The following applies: A375-S2, 72 h.
Series [12] in a line: AUC (0 to 24 hrs) in Slc:ICR mouse at 1 mg/kg, po measured for 8 to 24 hrs by LC/MS/MS analysis. It is filed as ADME, organism-based. On the set-up: dose 1 mg/kg, time upper 24 hrs, time lower 8 hrs, route po. Particulars: in vivo.
In series [13] the target is T1, Bromodomain-containing protein 4. Put plainly: Displacement of Biotin-tagged [Lys(5,8,12,16)Ac]H4(1 to 21) peptide from BRD4-BD2 (unknown origin) incubated for 3 hrs by HTRF based TR-FRET assay.
A short description of series [14]: Toxicity in CAnN.Cg-Foxnlnu/CrlCrlj mouse xenografted with human A375.S2 cells assessed as body weight loss at 30 to 60 mg/kg administered twice daily for 14 days. It is filed as organism-based. Particulars: in vivo, 336 h, dose 30-60 mg/kg, time 14 day.
Series [15] can be described thus: Volume of distribution in Slc:ICR mouse at 0.5 mg/kg, iv measured for 4 to 8 hrs by LC/MS/MS analysis. The series is classed as ADME, organism-based. The following applies: in vivo, time 4-8 hrs.
For series [16], the target named is Bromodomain testis-specific protein (Homo sapiens, UniProt Q58F21). The series is described as follows: Displacement of Biotin-tagged [Lys(5,8,12,16)Ac]H4(1 to 21) peptide from GST-tagged BRDT-BD1 (unknown origin) incubated for 3 hrs by HTRF based TR-FRET assay.
In series [17] the target is Bromodomain-containing protein 2 (Homo sapiens, UniProt P25440). The series is described as follows: Displacement of Biotin-tagged [Lys(5,8,12,16)Ac]H4(1 to 21) peptide from GST-tagged BRD2-BD1 (unknown origin) incubated for 3 hrs by HTRF based TR-FRET assay.
Series [18] has as its target T1, Bromodomain-containing protein 4. Put plainly: Inhibition of NanoLuc-tagged full length BRD4 (unknown origin) transfected in HEK293 cells coexpressing histone H4-halo-tagged fusion vector preincubated overnight followed by substrate addition and measured after 10 mins by NanoBRET assay. It is filed as cell-based.

Chain of Bromodomain-containing protein 3 (Q15059 whole entry): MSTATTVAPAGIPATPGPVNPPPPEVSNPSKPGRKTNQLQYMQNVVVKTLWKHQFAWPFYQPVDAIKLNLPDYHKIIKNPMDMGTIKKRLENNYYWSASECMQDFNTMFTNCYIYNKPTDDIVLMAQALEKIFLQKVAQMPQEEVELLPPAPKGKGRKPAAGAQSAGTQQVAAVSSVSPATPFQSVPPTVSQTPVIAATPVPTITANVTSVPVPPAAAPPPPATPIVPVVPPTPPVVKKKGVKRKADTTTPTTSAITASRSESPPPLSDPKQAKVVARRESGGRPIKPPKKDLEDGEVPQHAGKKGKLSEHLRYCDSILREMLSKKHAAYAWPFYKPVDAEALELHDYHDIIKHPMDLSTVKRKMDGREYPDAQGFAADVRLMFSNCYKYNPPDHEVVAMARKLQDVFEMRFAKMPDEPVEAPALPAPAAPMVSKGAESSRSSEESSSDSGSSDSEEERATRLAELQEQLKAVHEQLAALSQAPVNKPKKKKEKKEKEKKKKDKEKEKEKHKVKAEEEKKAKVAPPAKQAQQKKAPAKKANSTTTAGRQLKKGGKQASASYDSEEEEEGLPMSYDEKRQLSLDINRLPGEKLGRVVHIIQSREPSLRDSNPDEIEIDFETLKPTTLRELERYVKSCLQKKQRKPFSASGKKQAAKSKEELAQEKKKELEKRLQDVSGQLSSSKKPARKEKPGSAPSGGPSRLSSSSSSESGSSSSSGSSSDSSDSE
Chain of Bromodomain-containing protein 2 (P25440 whole entry, the tested form may be a part): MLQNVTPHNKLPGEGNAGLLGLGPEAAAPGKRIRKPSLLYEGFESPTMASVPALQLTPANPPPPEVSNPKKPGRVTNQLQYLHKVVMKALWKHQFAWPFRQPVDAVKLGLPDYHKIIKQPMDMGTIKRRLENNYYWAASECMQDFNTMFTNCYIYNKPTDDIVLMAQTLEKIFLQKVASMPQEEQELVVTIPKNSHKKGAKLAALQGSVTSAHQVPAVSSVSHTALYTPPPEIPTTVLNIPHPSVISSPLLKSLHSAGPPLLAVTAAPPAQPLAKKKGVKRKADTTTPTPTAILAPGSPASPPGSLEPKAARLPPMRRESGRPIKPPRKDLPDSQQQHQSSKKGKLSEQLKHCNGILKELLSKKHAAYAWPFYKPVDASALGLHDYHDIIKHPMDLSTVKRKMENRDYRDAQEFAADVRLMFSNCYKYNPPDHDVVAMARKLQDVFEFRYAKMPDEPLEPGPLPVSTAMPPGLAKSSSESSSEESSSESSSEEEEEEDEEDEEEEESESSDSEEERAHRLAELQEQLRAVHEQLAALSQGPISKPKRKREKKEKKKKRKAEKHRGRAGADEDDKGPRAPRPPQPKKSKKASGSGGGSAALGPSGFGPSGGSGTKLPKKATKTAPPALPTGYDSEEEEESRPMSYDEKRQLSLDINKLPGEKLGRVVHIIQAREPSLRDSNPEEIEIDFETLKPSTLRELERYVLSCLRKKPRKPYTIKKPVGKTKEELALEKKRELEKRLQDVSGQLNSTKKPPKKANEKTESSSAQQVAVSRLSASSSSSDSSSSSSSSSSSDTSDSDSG

For `Cc1cc(-c2ccc3cnn(Cc4ccccc4)c3c2)cn(C)c1=O`, the CLH turned out to be 43 mL/min in series [1] and 42 mL/min in series [3]. In series [2], this compound displayed an IC50 of 61 nM.
The compound `Cc1cc(-c2ccc3[nH]c(=O)n(Cc4ccccc4)c3c2)cn(C)c1=O` yielded a clearance in series [4] of 40 mL/min. Also, the apical-to-basolateral permeability (Papp A→B) at 2 h in series [5] is 5.9 ×10⁻⁶ cm/s. For the same compound, the AUC(0-t) in [6] amounted to 178 ng·h/mL. The same compound yielded a Cmax in “in vivo” of 37 ng/mL. Further, the CLH in [1] amounted to 29 mL/min; in series [3], 15 mL/min. This compound yielded an IC50 in series [2] of 32 nM. The bioavailability in [7] is 70%.
`CCS(=O)(=O)c1cc(-c2cc(C)c(=O)n(C)c2)cc2c1[nH]c(=O)n2Cc1ccccc1` came in with an IC50 in [2] of 112 nM.
For `CCS(=O)(=O)NCc1cc(-c2cc(C)c(=O)n(C)c2)cc2c1[nH]c(=O)n2Cc1ccccc1`, in [5], the apparent permeability from apical to basolateral (Papp A→B) at 2 h turned out to be 0.11 ×10⁻⁶ cm/s. Besides, the CLH in [1] is 43 mL/min; in [3], 66 mL/min. In series [2], this compound came in with an IC50 of 12 nM.
In series [2], `COCCn1c(=O)n(Cc2ccccc2)c2cc(-c3cc(C)c(=O)n(C)c3)ccc21` displayed an IC50 of 45 nM.
Consider `Cc1cc(-c2cc3c4c(c2)n(Cc2ccccc2)c(=O)n4CCO3)cn(C)c1=O`, for which the clearance in [4] is 3.3 mL/min. In addition, the half-life in series [8] was 4.1 h. The figures for the Activity in [9] and in [14] were 41% and “Non-Toxic”, respectively. Besides, the Papp A→B at 2 h in series [5] was found to be 12 ×10⁻⁶ cm/s. The IC50 in series [10] is 25 nM; in [11] it was 539 nM; in [13] it was 55 nM; in series [2] it was 15 nM; in [16], 68 nM; in series [17], 19 nM. This compound came in with an IC50 in [18] of 81 nM. Further, the AUC(0-t) in [12] was 2420 ng·h/mL. Further, in the series “in vivo”, the Cmax came out at 299 ng/mL. For the same compound, the Vd in series [15] came out at 1.18 L/kg. Moreover, the bioavailability in series [7] came out at 49%. In series [3], the CLH worked out at 17 mL/min.
Consider `Cc1cc(-c2ccc3c(c2)n(Cc2ccccc2)c(=O)n3CC(C)C)cn(C)c1=O`, for which the CLH in [1] is 352 mL/min; in [3] it was 491 mL/min. Moreover, in [2], the IC50 came to 42 nM.
Turning to `CCS(=O)(=O)Cc1cc(-c2cc(C)c(=O)n(C)c2)cc2c1n(C)c(=O)n2Cc1ccccc1`, the CLH worked out at 14 mL/min in series [1] and 34 mL/min in [3]. Also, in [2], the half-maximal inhibitory concentration (IC50) was 4.8 nM.
Consider `CC[S+]([O-])c1cc(-c2cc(C)c(=O)n(C)c2)cc2c1[nH]c(=O)n2Cc1ccccc1` (centres undefined), for which the IC50 in series [2] was 157 nM.
On the same count and under the same terms, for `Cc1cc(-c2ccc3c(c2)N(Cc2ccccc2)C(=O)CN3)cn(C)c1=O` the value was 122 nM.
On to `Cc1cc(-c2ccc3c(c2)n(Cc2ccccc2)c(=O)n3C)cn(C)c1=O`, for which, in series [5], the Papp A→B at 2 h was determined as 21 ×10⁻⁶ cm/s. Moreover, the CLH in series [1] is 25 mL/min; in series [3] it was 20 mL/min. In addition, the IC50 in series [2] was determined as 50 nM.
With `Cc1cc(-c2ccc3ncn(Cc4ccccc4)c3c2)cn(C)c1=O`, in the series “in vivo”, the Cmax is less than 1 ng/mL. In addition, the CLH in series [1] worked out at 65 mL/min; in series [3], 36 mL/min.
As to `CCS(=O)(=O)Nc1cc(-c2cc(C)c(=O)n(C)c2)cc2c1[nH]c(=O)n2Cc1ccccc1`, the Papp A→B at 2 h in series [5] was 0.05 ×10⁻⁶ cm/s. Besides, the CLH in series [1] and in series [3] was less than 9.6 mL/min each time. Besides, the IC50 in [2] was found to be 19 nM.
`Cc1cc(-c2ccc3nnn(Cc4ccccc4)c3c2)cn(C)c1=O`: the CLH in [1] stood at 49 mL/min; in series [3], 23 mL/min. This compound showed an IC50 in [2] of 38 nM.
As to `CCS(=O)(=O)NCc1cc(-c2cc(C)c(=O)n(C)c2)cc2c1n(C)c(=O)n2Cc1ccccc1`, in series [5], the Papp A→B at 2 h is 0.03 ×10⁻⁶ cm/s. Also, the CLH in [1] is 37 mL/min; in series [3], 53 mL/min. In series [2], the half-inhibitory concentration (IC50) is 39 nM.
Taken in the same sequence, the figures for `Cc1cc(-c2ccc3c(c2)n(Cc2ccccc2)c(=O)n3C(C)C)cn(C)c1=O` were 14 ×10⁻⁶ cm/s, 27 mL/min, 38 mL/min and 25 nM.
Take `CCS(=O)(=O)Cc1cc(-c2cc(C)c(=O)n(C)c2)cc2c1[nH]c(=O)n2Cc1ccccc1`: the Papp A→B at 2 h in series [5] was 0.02 ×10⁻⁶ cm/s. For the same compound, the CLH in series [1] and in series [3] was 11 mL/min throughout. Further, in series [2], the IC50 was found to be 4.2 nM.
In series [2], `Cc1cc(-c2ccc3ccn(Cc4ccccc4)c3c2)cn(C)c1=O` registered an IC50 of 94 nM.
